# Legend:
# Format in all cases: cell-based, human
# A549 cancer cells = experiment: Intracellular ATP production; conditions: A549, 10 μM, 12 h
# Protocol: (§1) Since ATP production is a significant consequence attributed to the dysfunction of mitochondrial energy production, we measured intracellular ATP levels after complex 3 treatment.
# (§2) The ATP production assay kit (Haimen, Jiangsu, China) was used to measure intracellular ATP level according to the manufacturer's instructions. […] Detection was performed using the luminometer Orion II (Berthold DS, Bleichstr, Pforzheim, Germany).
# NCI-H1299 cancer cells = experiment: Intracellular ATP production; conditions: NCI-H1299, 10 μM, 12 h
# Protocol: as §1, §2
# A549 cells [1] = experiment: Autophagy by acridine orange flow cytometry (AVOs)
# Protocol: (§3) The role of complex 3-induced autophagy in cell death was further analyzed (Figure 6). When A549 cancer cells were treated with complex 3 of 10 μM, the protein expression of LC3-II was increased (Figure 6A). […] Treatment with complex 3 for 24 h caused a 4.5-folds increase in cells undergoing autophagy (Figure 6C). […] Moreover, Bax and Bcl-2 expressions were measured by western blot analysis of whole cell lysates.
# (§4) To investigate the role of ROS in complex 3-induced cell death, the level of intracellular H2O2 was measured. […] Exposure of A549 cells to NAC reduced levels of LC3-II from 2.3- to 1.5-folds (Figure 8B). […] In parallel, the complex 3-induced increase ratio of Bax/Bcl-2 was suppressed by NAC (Figure 8E).
# Flow cytometry with acridine orange staining as described in a previous study was used to detect and quantify the AVOs, one of the characteristicsof autophagy. At the end of individual experiments, A549 cells were collected in phenol red-free RPMI 1640 medium. Green (FL-1) and red (FL-3) fluorescences of acridine orange were measured using a flow cytometer and CellQuest software (Becton Dickinson, San Jose, CA). The sum of the upper-left and upper-right quadrants of the cytogram was used to estimate the percentage of cells undergoing autophagy.
# A549 cells [2] = experiment: Quantification of apoptotic cells (annexin V/PI flow cytometry)
# Protocol: as §3, §4
# The mode of cell death was analyzed by flow cytometry with annexin V/propidium iodide (PI) double-staining to detect membrane events according to a previous study. After individual treatments, whole cells were collected in 4-(2-hydroxyethyl)-1-piperazineethanesulfonic acid (HEPES) buffer containing 10 mM HEPES (pH 7.4), 140 mM NaCl, and 2.5 mM CaCl2. Cells were subsequently stained with annexin V (2.5 μg/ml) and PI (2 ng/ml) for 20 min, followed by analysis by flow cytometry (Beckman Coulter). Cystograms of the four quadrants in the figure were used to distinguish normal (annexin V^−/PI^−), early apoptotic (annexin V^+/PI^−), late apoptotic(annexin V^+/PI^+), and necrotic cells (annexin V^−/PI^+). The sum of early apoptosis and late apoptosis is presented as total apoptosis.
# caspase-3 = experiment: Caspase-3 activation analysis; conditions: A549 and NCI-H1299, 10 μM, 24 h
# Protocol: For the quantification of activation of caspase-3 in cancer cells, 5 × 10^5 cancer cells were seeded in a 60 mm dish and allowed to adhere for 1 day. […] As a reference control, the cells were only incubated with fresh media at 37°C. Then, the cells were washed with PBS to eliminate the remaining drugs and harvested using trypsin-EDTA. All the groups of cells were collected into microtubes following incubation with […] media containing […] of FITC-DEVD-FMK (Caspase 3(active) FITC Staining Kit (ab65613)) for 1 h at 37°C under 5% CO2. Subsequently, centrifugation of the cells was performed to collect cell pellets and washed 2 times with washing buffer. Each group of cells was resuspended with […] of the washing buffer and transferred […] per well in a microtiter plate reader. The quantification of caspase-3 was evaluated as Relative Fluorescence Unit(RFU) using Fluorophotometer (Max Gemini EM, SoftMax® Pro 5, Molecular Devices Corp., Sunnyvale, CA) at an emission wavelength of 535 nm after excitation at 485 nm. The statistical significance was evaluated with one-way ANOVA test using Graph Pad Prism 4 software.
# [3] = test system: A549 and NCI-H1299 cancer cells; experiment: Mitochondrial transmembrane potential (JC-1); conditions: A549 and NCI-H1299, 10 μM, 24 h
# Excerpt: To further study the detailed process of apoptosis induced by complex 3 in NSCLC cells, we examined the mitochondrial membrane potential (ΔΨm), which is an important proapoptotic index for early apoptosis. We chose a mitochondria-specific and voltage-dependent fluorescent probe, JC-1, to observe whether there was loss in ΔΨm.
# The electrical potential difference across inner mitochondrial membrane (ΔΨm) was monitored using the ΔΨm-specific fluorescent probe JC-1 (Molecular Probes Inc., Eugene, OR), a sensitive fluorescent dye. […] Red fluorescence is attributable to a potential-dependent aggregation in the mitochondria. Green fluorescence, reflecting the monomeric form of JC-1, appeared in the cytosol after mitochondrial membrane depolarization. Relative fluorescence intensities were monitored using the flow cytometry (FACSCalibur, Becton Dickinson), and analyzed by the software Modfit and Cell Quest (BD Biosciences, Franklin Lakes, NJ) with settings of FL1 (green) at 530 nm and FL2 (red) at 585 nm.
# γ-H2AX = experiment: Nuclear γH2AX foci analysis; conditions: A549, 8 h and 12 h
# Excerpt: The serine 139-phosphorylated form of chromatin-associated histone H2AX, namely γ-H2AX, is a key marker of cellular response to DDR, particularly DSBs. […] Obviously, pre-treatment of NAC could considerably alleviate the DDR triggered by complex 3 (Figure 5B). Therefore, we came to a conclusion that complex 3 caused DDR especially DSBs in A549 cells, which might happen after the increased level of intracellular ROS. In order to reveal the mechanisms underlying the enhanced DNA damage, complex 3 was studied to learn whether it could reduce the activation of DNA repair response including the co-localization of DSB repair protein MDC1/Aprataxin within nucleus. […] In order to reveal the mechanisms underlying DNA damage, complex 3 was studied to detect whether it could suppress the activation of DNA single strand break repair via the phosphorylation of SSB repair mediator/adaptor proteins XRCC1 within nucleus.
# For assessment of DSBs repair kinetics we detected the total nuclear volume for an average of 50–60 nuclei per time points and cell type. Briefly, A549 cells were grown to confluence in 35 mm petri-dishes with 0.17 mm glass bottom. […] Non-specific binding was blocked by incubation with 5% FCS/PBS/0.1% Triton X-100 for 1 h at RT. […] Numbers of γH2AX foci were counted in 50–60 nuclei and plotted over time as previously described.
# [4] = A549, 10 μM complex 18 h, without NAC
# [5] = A549, 5 mM NAC 2 h pretreatment then 10 μM complex 18 h
structure (smiles),measurement,setting,value
CC(C)C[NH+]1[C@@H]2CCCC[C@H]2[NH+](CC(C)C)[Pt-2]12[O]C(=O)CC(=O)[O]2 (stereo partly shown) [Complex 3],"ATP level, % of untreated cells",A549 cancer cells,19.95%
same,"ATP level, % of untreated cells",NCI-H1299 cancer cells,31.89%
same,percentage of autophagy,A549 cells [1]; [4],42.5%
same,increase in cells undergoing autophagy,"A549 cells [1]; A549, 10 μM, 24 h",4.5 folds
same,percentage of autophagy,A549 cells [1]; [5],11.8%
same,percentage of apoptosis,A549 cells [2]; [4],52.5%
same,percentage of apoptosis,A549 cells [2]; [5],34.2%
same,caspase-3 activity,caspase-3,high degree of caspase-3 activity compared to oxaliplatin
same,mitochondrial membrane potential (ΔΨm),[3],remarkable decrement of ΔΨm
same,γ-H2AX,γ-H2AX,obvious increases in γ-H2AX

# Reference: PMC5458179, “Oxidative DNA double strand breaks and autophagy in the antitumor effect of sterically hindered platinum(II) complexes in NSCLCs” (Oncotarget, 2017)
